What is called IC50 is the concentration at which inhibition is half-maximal. Low values mean greater potency, high ones weaker potency.

One test concerns the target T1, JAK2 JH1JH2 V617F kinase (Homo sapiens, UniProt O60674, V617F).
T1 construct: JAK2 JH1JH2 V617F kinase; inferred from Ni-NTA capture and imidazole elution; made in house; host or cells: Sf9 insect cells
Nature of the test: JAK2 Luminescence-Based ATP Depletion Enzyme Assay (JAK2-V617F). The test is classed as biochemical. The following applies: 10 μM ATP. As to the method: (§1) JAK2 Luminescence-Based ATP Depletion Enzyme Assay
(§2) Materials: JAK3tide peptide substrate=GGEEEEYFELVKKKK (Biopeptide, San Diego, Calif.), ATP (Sigma Cat#A-3377, FW=551), HEPES buffer, pH 7.6, 10% Brij 35 (Calbiochem Cat#203728), MgCl2, Staurosporine (Streptomyces sp. Sigma Cat#85660-1MG), white Corning (Costar) 384-well flat bottom plate (VWR Cat#29444-088), JAK2 KD (kinase domain) or JAK2 JH1JH2 V617F kinase (see below), Kinase-Glo™ (Promega Cat#V6712).
(§3) Stock Solutions: 5 mM JAK3tide peptide (9.86 mg/ml in 100 mM HEPES, pH 7.6), stored at −20° C.; 100 mM HEPES buffer, pH 7.6, 10% Brij 35; 10 mM ATP (5.51 mg/ml in 100 mM HEPES, pH 7.6) stored at −20° C. (diluted 50 μl into total of 10 ml 100 mM HEPES, pH 7.6, daily=50 μM ATP working stock); 100 mM MgCl2; 200 μM Staurosporine, 2× Kinase-Glo™ reagent (made fresh or stored at −20° C.).
(§4) Standard Assay Conditions for 384-well format (20 μl kinase reaction, 40 μl detection reaction): 10 mM MgCl2; 0.1 mM JAK3tide peptide (or, 0.5 mM JAK3tide peptide for JAK2 JH1JH2 V617F assay); 1 μl test compound (in 100% DMSO); 0.4 μg/ml JAK2 KD kinase or 12 μg/ml JAK2 JH1JH2 V617F kinase; 10 μM ATP; 100 mM HEPES+0.01% Brij, pH 7.6. Positive controls contained 5% DMSO with no test compound. Negative controls contained 10 μM staurosporine. The kinase reactions were initiated at time t=0 by the addition of ATP. Kinase reactions were incubated at 21-23° C. for 30 min, after which 20 μl of Kinase-Glo™ reagent were added to each well to quench the kinase reaction and initiate the luminescence reaction. After a 20 min incubation at 21-23° C., the luminescence was detected in a plate-reading luminometer (Tecan Ultra Evolution).
(§5) The pellet of Sf9 insect cells produced from a 6 L expression of Jak2 was resuspended in a buffer containing 50 mM Tris-HCl pH 8.5, 250 mM NaCl, 5% Glycerol, 0.2% β-octylglucoside, 5 mM β-mercaptoethanol (or with ligand added to the buffer eg. 5 mM ATP and 10 mM MgCl2; 0.05 mM compound of the invention) in a volume of approximately 40 mL per 1 L of original culture. One tablet of Roche Complete, EDTA-free protease inhibitor cocktail (Cat. #1873580) was added per 1 L of original culture. The suspension was then stirred for 1 hour at 4° C. Debris was removed by centrifugation for 30 minutes at 39,800 g at 4° C. The supernatant was decanted into a 500 mL beaker and 10 mL of 50% Qiagen Ni-NTA Agarose (Cat. #30250) pre-equilibrated in 50 mM Tris-HCl pH 8.5, 250 mM NaCl, 5% Glycerol, 0.2% β-octylglucoside, 5 mM β-mercaptoethanol was added and stirred for 30 minutes at 4° C. The sample was poured through a drip column at 4° C. and washed with 10 column volumes (CV) of 50 mM Tris-HCl pH 8.5, 250 mM NaCl, 5% Glycerol, 0.2% β-octylglucoside, 5 mM β-mercaptoethanol. The protein was eluted in 5 mL fractions using 5 CV of the same buffer containing 250-500 mM Imidazole. Fractions were pooled by SDS-PAGE analysis and the protein concentration determined by a Bradford assay. 5 mM TCEP was added to the pool and the protein sample was concentrated to ˜8 mL by centrifugation in an Amicon Ultra-15 10,000 Da MWCO centrifugal filter unit (Cat. #UFC901024). The concentrated protein was applied to a GE Healthcare HiLoad 16/60 Superdex 75 or 200 prep grade column (Cat. #17-1068-01, Cat. #17-1069-01) equilibrated in 20 mM Tris-HCl pH 8.5, 250 mM NaCl, and 1 mM DTT. Fractions were run on a SDS-PAGE gel and the cleanest fractions were pooled. The protein was concentrated to approximately 6.5-10 mg/mL. Samples in the final buffer (20 mM Tris-HCl pH 8.5, 250 mM NaCl, 1 mM DTT; [or with ligand added eg. 2 mM ATP/5 mM MgCl2 or 0.05 mM compound of the invention]) are delivered fresh to crystallization and stored at 4° C. or flash frozen in liquid nitrogen (as 120 μL aliquots) and stored at −80° C.

In another test the target is T2, JAK2 KD kinase (Homo sapiens, UniProt O60674).
T2 construct: JAK2 KD (kinase domain); inferred from Ni-NTA capture and imidazole elution; made in house; host or cells: Sf9 insect cells
Nature of the test: JAK2 Luminescence-Based ATP Depletion Enzyme Assay (JAK2-WT). The test is classed as biochemical. The following applies: 10 μM ATP. The protocol:
as §1, §2, §3, §4, §5

T2 sequence (O60674 849-1124 limits assumed): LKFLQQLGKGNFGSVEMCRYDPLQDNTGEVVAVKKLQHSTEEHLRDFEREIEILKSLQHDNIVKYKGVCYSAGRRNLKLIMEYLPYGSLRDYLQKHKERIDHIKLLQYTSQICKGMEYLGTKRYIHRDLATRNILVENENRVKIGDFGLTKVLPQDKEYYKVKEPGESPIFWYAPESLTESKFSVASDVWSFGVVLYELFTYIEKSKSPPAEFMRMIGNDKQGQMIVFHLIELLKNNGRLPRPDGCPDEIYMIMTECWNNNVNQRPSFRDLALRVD
T1 sequence (O60674 536-1132 V617F limits assumed): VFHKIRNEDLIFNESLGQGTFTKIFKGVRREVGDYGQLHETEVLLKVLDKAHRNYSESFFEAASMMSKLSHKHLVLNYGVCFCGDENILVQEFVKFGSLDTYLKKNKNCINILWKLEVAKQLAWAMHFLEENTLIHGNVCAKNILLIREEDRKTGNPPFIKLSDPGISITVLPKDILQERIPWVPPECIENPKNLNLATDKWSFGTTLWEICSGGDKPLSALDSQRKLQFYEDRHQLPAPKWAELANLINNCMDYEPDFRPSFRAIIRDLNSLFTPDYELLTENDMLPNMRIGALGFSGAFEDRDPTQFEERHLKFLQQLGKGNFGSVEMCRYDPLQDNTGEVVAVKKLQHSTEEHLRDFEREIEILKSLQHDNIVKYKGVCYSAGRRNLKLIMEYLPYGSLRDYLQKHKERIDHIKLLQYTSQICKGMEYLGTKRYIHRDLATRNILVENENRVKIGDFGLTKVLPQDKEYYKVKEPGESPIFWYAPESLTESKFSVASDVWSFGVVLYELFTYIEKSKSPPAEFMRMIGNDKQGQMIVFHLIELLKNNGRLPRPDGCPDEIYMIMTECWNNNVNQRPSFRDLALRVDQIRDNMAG

In the case of `CC(O)c1cccc(Nc2nccc(-c3ccc(-c4cccc(CC#N)c4)s3)n2)c1` (stereo not drawn), the results for the IC50 against JAK2 JH1JH2 V617F kinase and against JAK2 KD kinase were less than 500 nM and less than 100 nM, respectively.
As to `CNC(=O)c1ccc(-c2ccc(-c3ccnc(Nc4cccc(C(C)O)c4)n3)s2)cc1` (stereo not drawn), at JAK2 KD kinase, the IC50 was less than 100 nM.
For the molecule `C[C@@H](NC(=O)c1ccc(-c2ccnc(Nc3cccc(CN4CCN(CCO)CC4)c3)n2)s1)c1ccccc1`, on JAK2 KD kinase, the IC50 was less than 100 nM.
Regarding `C[C@@H](NC(=O)c1ccc(-c2ccnc(Nc3cccc(CN4CCC(O)CC4)c3)n2)s1)c1ccccc1`, the results for the IC50 against JAK2 JH1JH2 V617F kinase and at JAK2 KD kinase were less than 500 nM and less than 100 nM, respectively.
Consider `CCN(CCC#N)S(=O)(=O)c1ccc(-c2ccnc(Nc3cccc(C(C)O)c3)n2)s1` (stereo not drawn), for which the IC50 was less than 500 nM at JAK2 JH1JH2 V617F kinase and less than 100 nM on JAK2 KD kinase.
The molecule `CCC(=O)Nc1ccc(-c2ccnc(Nc3cccc(C)c3)n2)s1` registered an IC50 against JAK2 KD kinase of less than 100 nM.
For the molecule `CC(O)c1cccc(Nc2nccc(-c3ccc(S(=O)(=O)Cc4ccccc4)s3)n2)c1` (stereo not drawn), the IC50 at JAK2 KD kinase was less than 100 nM.
Regarding `CCN(CCC#N)C(=O)c1ccc(-c2ccnc(Nc3cccc(C(C)O)c3)n2)s1` (stereo not drawn), the IC50 was less than 500 nM against JAK2 JH1JH2 V617F kinase and less than 100 nM against JAK2 KD kinase.
For the molecule `CC(O)c1cccc(Nc2nccc(-c3ccc(S(=O)(=O)N(C)C)s3)n2)c1` (stereo not drawn), the IC50 against JAK2 JH1JH2 V617F kinase is less than 500 nM; against JAK2 KD kinase it was less than 100 nM.
The matching figures for `CCN(CCC#N)S(=O)(=O)c1ccc(-c2ccnc(Nc3cccc(C)c3)n2)s1`: less than 500 nM and less than 100 nM.
In turn, `CC(O)c1cccc(Nc2nccc(-c3ccc(-c4cccnc4)s3)n2)c1` (stereo not drawn) registered an IC50 at JAK2 KD kinase of less than 100 nM.
On to `O=C(NCc1ccccc1)c1ccc(-c2ccnc(Nc3ccc(CCO)cc3)n2)s1`, for which the IC50 is less than 500 nM at JAK2 JH1JH2 V617F kinase and less than 100 nM against JAK2 KD kinase.
The molecule `CN(Cc1ccccc1)C(=O)c1ccc(-c2ccnc(Nc3ccc(CCO)cc3)n2)s1` returned an IC50 at JAK2 KD kinase of less than 100 nM.
The same measure, in the same setting: as for `CC(O)c1cccc(Nc2nccc(-c3ccc(-c4ccncc4)s3)n2)c1` (stereo not drawn), the figure is less than 100 nM; as for `OC1CCN(Cc2cccc(Nc3nccc(-c4ccc(CNc5ccccc5Cl)s4)n3)c2)CC1`, less than 100 nM.
On to `CN(C)C1CCN(c2cccc(Nc3nccc(-c4ccc(C(=O)NCc5ccco5)s4)n3)c2)C1` (stereo not drawn), for which the IC50 is less than 500 nM on JAK2 JH1JH2 V617F kinase and less than 100 nM at JAK2 KD kinase.

Source of the values: US7977481B2, “Pyrimidinyl-thiophene kinase modulators” (SGX Pharmaceuticals, Inc., priority 2005, dated 2011).
